According to BigSolDB 2.1:

N#CCC(N)=O
solubility (mole fraction)
Details | 283.15 K | 288.15 K | 293.15 K | 298.15 K | 303.15 K | 308.15 K | 313.15 K | 318.15 K | 323.15 K
in ethanol | 0.00653 | 0.00898 | 0.0107 | 0.0129 | 0.0157 | 0.0188 | 0.0233 | 0.0281 | 0.0362
in isopropanol | 0.00409 | 0.00548 | 0.00648 | 0.00816 | 0.0103 | 0.0135 | 0.0168 | 0.0197 | 0.024
in methanol | 0.0186 | 0.0227 | 0.0273 | 0.0332 | 0.0401 | 0.048 | 0.0565 | 0.0684 | 0.08
in n-propanol | 0.00345 | 0.00421 | 0.00565 | 0.0072 | 0.0091 | 0.0115 | 0.0146 | 0.0181 | 0.0229
in water | 0.0171 | 0.0221 | 0.0304 | 0.039 | 0.0505 | 0.0651 | 0.086 | 0.11 | 0.131
